{"source": "patent US4522803A", "about": "(priority 1983, dated 1985)", "key": {"B. canis [1]": {"test_system": "B. canis", "format": "cell-based", "details": "suspension culture"}, "B. abortus [2]": {"test_system": "B. abortus", "design": "species or system B. abortus ATCC 23451", "details": "in vivo, ip, 10 mg/kg"}, "B. canis [3]": {"test_system": "B. canis", "design": "species or system B. canis ATCC 23365", "details": "in vivo, ip, 10 mg/kg"}, "M. bovis": {"test_system": "M. bovis", "format": "in vivo"}, "B. canis [4]": {"test_system": "B. canis", "design": "species or system B. canis ATCC 23365", "details": "in vivo, ip, 10 mg/kg", "remark": "listed apart in the source"}, "B. canis antigen": {"test_system": "B. canis antigen", "details": "in vivo"}, "B. abortus [5]": {"test_system": "B. abortus", "format": "cell-based", "details": "mean ± SD of 12 replicates; streptomycin 1 mg/ml, 24 hours"}, "B. canis [6]": {"test_system": "B. canis", "format": "cell-based"}, "B. canis [7]": {"test_system": "B. canis", "design": "species or system B. canis ATCC 23365", "details": "in vivo"}, "B. canis [8]": {"test_system": "B. canis", "design": "species or system B. canis ATCC 23365", "details": "in vivo", "remark": "listed apart in the source"}, "[9]": {"assay": "Retention and sustained release of gentamycin after topical application in eyes of mice"}}, "note": "Like-named read-outs stand apart in the source and are kept apart here.", "data": [{"compound": "[H]/N=C(/N)N[C@H]1[C@H](O)[C@@H](O)[C@H](O[C@@H]2O[C@@H](C)[C@](O)(C=O)[C@H]2O[C@@H]2O[C@@H](CO)[C@H](O)[C@@H](O)[C@@H]2NC)[C@@H](N/C(N)=N\\[H])[C@@H]1O", "note": "[Streptomycin]", "values": [{"measurement": "Killing of B. canis in vitro", "setting": "B. canis [1]", "result": "kill B. canis in vitro"}, {"measurement": "Surviving B. abortus in spleen", "setting": "B. abortus [2]", "result": "viable B. abortus bacteria were be identified"}, {"measurement": "Blood and vaginal culture outcome", "setting": "B. canis [3]", "result": "remained culture positive for blood and vaginal cultures during post-treatment periods"}, {"measurement": "M. Bovis cultures positive", "setting": "M. bovis; UV-radiated, day 3 post-treatment", "result": "3/5"}, {"measurement": "M. Bovis cultures positive", "setting": "M. bovis; UV-radiated, day 5 post-treatment", "result": "4/5"}, {"measurement": "Number of mice with corneal opacity score 0", "setting": "M. bovis; UV-radiated, post-treatment", "result": 14}, {"measurement": "Number of mice with corneal opacity score 1 (loss of normal luster)", "setting": "M. bovis; UV-radiated, post-treatment", "result": 3}, {"measurement": "Number of mice with corneal opacity score 2 (small foci of opacity)", "setting": "M. bovis; UV-radiated, post-treatment", "result": 2}, {"measurement": "Number of mice with corneal opacity score 3 (partial opacity)", "setting": "M. bovis; UV-radiated, post-treatment", "result": 1}, {"measurement": "Number of mice with corneal opacity score 4 (total opacity)", "setting": "M. bovis; UV-radiated, post-treatment", "result": 0}, {"measurement": "Number of mice with corneal opacity score 0", "setting": "M. bovis; UV-radiated, pre-treatment", "result": 0}, {"measurement": "Number of mice with corneal opacity score 1 (loss of normal luster)", "setting": "M. bovis; UV-radiated, pre-treatment", "result": 4}, {"measurement": "Number of mice with corneal opacity score 2 (small foci of opacity)", "setting": "M. bovis; UV-radiated, pre-treatment", "result": 9}, {"measurement": "Number of mice with corneal opacity score 3 (partial opacity)", "setting": "M. bovis; UV-radiated, pre-treatment", "result": 7}, {"measurement": "Number of mice with corneal opacity score 4 (total opacity)", "setting": "M. bovis; UV-radiated, pre-treatment", "result": 0}, {"measurement": "M. Bovis cultures positive", "setting": "M. bovis; non-radiated, day 3 post-treatment", "result": "2/5"}, {"measurement": "M. Bovis cultures positive", "setting": "M. bovis; non-radiated, day 5 post-treatment", "result": "2/5"}, {"measurement": "Number of mice with corneal opacity score 0", "setting": "M. bovis; non-radiated, post-treatment", "result": 18}, {"measurement": "Number of mice with corneal opacity score 1 (loss of normal luster)", "setting": "M. bovis; non-radiated, post-treatment", "result": 2}, {"measurement": "Number of mice with corneal opacity score 2 (small foci of opacity)", "setting": "M. bovis; non-radiated, post-treatment", "result": 0}, {"measurement": "Number of mice with corneal opacity score 3 (partial opacity)", "setting": "M. bovis; non-radiated, post-treatment", "result": 0}, {"measurement": "Number of mice with corneal opacity score 4 (total opacity)", "setting": "M. bovis; non-radiated, post-treatment", "result": 0}, {"measurement": "Number of mice with corneal opacity score 0", "setting": "M. bovis; non-radiated, pre-treatment", "result": 18}, {"measurement": "Number of mice with corneal opacity score 1 (loss of normal luster)", "setting": "M. bovis; non-radiated, pre-treatment", "result": 1}, {"measurement": "Number of mice with corneal opacity score 2 (small foci of opacity)", "setting": "M. bovis; non-radiated, pre-treatment", "result": 1}, {"measurement": "Number of mice with corneal opacity score 3 (partial opacity)", "setting": "M. bovis; non-radiated, pre-treatment", "result": 0}, {"measurement": "Number of mice with corneal opacity score 4 (total opacity)", "setting": "M. bovis; non-radiated, pre-treatment", "result": 0}, {"measurement": "Surviving B. canis per organ", "setting": "B. canis [4]", "result": "viable B. canis organisms could be isolated in all tissues sampled"}, {"measurement": "M (2-mercaptoethanol tube agglutination test), reciprocal of serum titer", "setting": "B. canis antigen", "result": "0 × 10^2"}, {"measurement": "R (rapid slide agglutination test), reciprocal of serum titer", "setting": "B. canis antigen", "result": "0 × 10^2"}, {"measurement": "Serum antibody against B. canis", "setting": "B. canis antigen; ip, 10 mg/kg", "result": "developed detectable serum titers against B. canis antigens by day 21 post-inoculation"}, {"measurement": "Colony-forming units of intracellular B. abortus", "setting": "B. abortus [5]", "result": "3.3 ± 0.25 × 10^4 CFU"}, {"measurement": "Colony-forming units of intracellular B. canis", "setting": "B. canis [6]", "result": "3.11 + 0.40 × 10^3 CFU"}, {"measurement": "Colony-Forming Units B. Canis Per Spleen", "setting": "B. canis [7]", "result": "1.01 ± 0.17 × 10^5"}, {"measurement": "Surviving B. canis in spleens", "setting": "B. canis [8]", "result": "very little reduction in surviving B. canis in spleens was observed"}]}, {"compound": "CN[C@@H]1[C@H](O[C@H]2[C@H](O[C@H]3[C@H](O)[C@@H](O)[C@H](NC(=N)N)[C@@H](O)[C@@H]3NC(=N)N)O[C@@H](C)[C@]2(O)CO)O[C@@H](CO)[C@H](O)[C@H]1O", "note": "[Dihydrostreptomycin]", "values": [{"measurement": "Killing of B. canis in vitro", "setting": "B. canis [1]", "result": "kill B. canis in vitro"}, {"measurement": "Colony-Forming Units B. Canis Per Spleen", "setting": "B. canis [7]", "result": "1.13 ± 0.30 × 10^5"}]}, {"compound": "Gentamycin", "values": [{"measurement": "Killing of B. canis in vitro", "setting": "B. canis [1]", "result": "kill B. canis in vitro"}, {"measurement": "Gentamycin retained in eyelid tissue", "setting": "[9]; 4 hours, topical", "result": "less than 5%"}, {"measurement": "Gentamycin sulfate cleared", "setting": "[9]; within a 4 hour period", "result": 95, "unit": "%"}]}]}
